One data set relates to SK-BR-3. Put plainly: Antiproliferative activity against human SK-BR-3 cells assessed as reduction in cell growth incubated for 72 hrs by SRB assay. The format is functional, cell-based. The settings on record: SK-BR-3, 72 h. In general terms: In SRB staining, fixed cells bind dye roughly in proportion to their protein.
The next data set concerns SK-OV-3. Put plainly: Antiproliferative activity against human SK-OV-3 cells assessed as reduction in cell growth incubated for 72 hrs by SRB assay. Format: functional, cell-based. Particulars: SK-OV-3, 72 h.
The next data set has as its system PC-3. Put plainly: Antiproliferative activity against human PC-3 cells assessed as reduction in cell growth incubated for 72 hrs by SRB assay. Format: functional, cell-based. Particulars: PC-3, 72 h.
A further data set concerns U-87 MG. Put plainly: Antiproliferative activity against human U-87 MG cells assessed as reduction in cell growth incubated for 72 hrs by SRB assay. Format: functional, cell-based, U-87MG ATCC.
The next data set relates to A549. Put plainly: Antiproliferative activity against human A549 cells assessed as reduction in cell growth incubated for 72 hrs by SRB assay. The format is functional, cell-based. The settings on record: A549, 72 h.
A short description of data set [1]: Cytotoxicity against human HDF cells assessed as reduction in cell growth incubated for 72 hrs by SRB assay. Format: cell-based. The settings on record: HDFa.
The nature of data set [2]: Selectivity index, ratio of IC50 for cytotoxicity against human HDF cells to IC50 for cytotoxicity against human SK-BR-3 cells. The settings on record: HDF cells versus SK-BR-3 cells, read-out: Ratio IC50. The format is toxicity, cell-based.
Data set [3] is described as follows: Selectivity index, ratio of IC50 for cytotoxicity against human HDF cells to IC50 for cytotoxicity against human SK-OV-3 cells.
Data set [4] in a line: Selectivity index, ratio of IC50 for cytotoxicity against human HDF cells to IC50 for cytotoxicity against human PC-3 cells. The settings on record: HDF cells versus PC-3 cells, read-out: Ratio IC50. The format is toxicity, cell-based.
Data set [5] in a line: Selectivity index, ratio of IC50 for cytotoxicity against human HDF cells to IC50 for cytotoxicity against human U-87 MG cells. The format is toxicity, cell-based. Particulars: HDF cells versus U-87 MG cells, read-out: Ratio IC50.
Data set [6] can be described thus: Selectivity index, ratio of IC50 for cytotoxicity against human HDF cells to IC50 for cytotoxicity against human A549 cells. The format is toxicity, cell-based. Particulars: HDF cells versus A549 cells, read-out: Ratio IC50.
Data set [7] is described as follows: Binding affinity to HSP90 (unknown origin) assessed as dissociation constant by isothermal titration calorimetry. Set-up: species or system Homo sapiens.

`CO[C@H]1/C=C\C=C(/C)C(=O)NC2=CC(=O)C(NCC3CCC(C(=O)O)CC3)=C(C[C@@H](C)C[C@H](OC)[C@H](O)[C@@H](C)/C=C(\C)[C@@H]1OC(N)=O)C2=O` (stereo partly specified): the IC50 (usually the point on the concentration scale where inhibition reaches its midpoint) in the data set with SK-BR-3 was 2610 nM; in the data set with SK-OV-3, 2790 nM; in the data set with PC-3 it was 2360 nM; in the data set with U-87 MG it was 2810 nM; in the data set on A549, 2910 nM; in data set [1], 7.37 µM. Moreover, the selectivity ratio was 2.82 in data set [2], 3.12 in data set [4], 2.52 in data set [5] and 2.53 in [6]. In data set [3], the “Ratio IC50” value is recorded as 2.64. Besides, in [7], the Kd (in general, the equilibrium constant for the complex coming apart) amounted to 940 nM.

Turning to `C#CCCN1CCC(NC2=C3C[C@@H](C)C[C@H](OC)[C@H](O)[C@@H](C)/C=C(\C)[C@H](OC(N)=O)[C@@H](OC)/C=C\C=C(/C)C(=O)NC(=CC2=O)C3=O)CC1`, the IC50 was found to be 4710 nM with SK-BR-3; 4730 nM with SK-OV-3; 4090 nM in the data set with PC-3; 4860 nM in the data set on U-87 MG; 4370 nM in the data set on A549; 11.7 µM in data set [1]. Also, the selectivity ratio in [2] worked out at 2.49; in data set [4] it was 2.87; in data set [5], 2.42; in data set [6], 2.69. In addition, the “Ratio IC50” value in data set [3] is given as 2.48. Moreover, the Kd in data set [7] amounted to 2960 nM.

On to `CO[C@@H](C=CC=C(C)C(N)=O)[C@@H](OC(N)=O)/C(C)=C/[C@H](C)[C@@H](O)[C@H](C[C@H](C)CC1=C(NCCO)C(=O)C=C(NCCO)C1=O)OC`, for which the concentration for half-maximal inhibition (IC50) with SK-BR-3 amounted to 2080 nM; in the data set with SK-OV-3, 2660 nM; in the data set on PC-3, 2130 nM; in the data set on U-87 MG, 2040 nM; in the data set with A549, 2380 nM; in data set [1], 4.84 µM. The selectivity ratio in [2] amounted to 2.33; in [4], 2.72; in data set [5], 3.42; in data set [6], 2.03. Also, in [3], the “Ratio IC50” value stood at 1.82. The Kd in data set [7] amounted to 134000 nM.

In the case of `CCOC(=O)[C@@H](N)CCCCNC1=C2C[C@@H](C)C[C@H](OC)[C@H](O)[C@@H](C)/C=C(\C)[C@H](OC(N)=O)[C@@H](OC)/C=C\C=C(/C)C(=O)NC(=CC1=O)C2=O`, the IC50 in the data set with SK-BR-3 came out at 1370 nM; in the data set on SK-OV-3, 1090 nM; with PC-3, 1260 nM; in the data set on U-87 MG it was 1050 nM; in the data set with A549 it was 1390 nM; in [1], 3.19 µM. In addition, the selectivity ratio in [2] was 2.33; in data set [4] it was 2.53; in data set [5], 3.04; in data set [6] it was 2.29. The “Ratio IC50” value in [3] is listed as 2.93.

For `CO[C@H]1/C=C\C=C(/C)C(=O)NC2=CC(=O)C(NCC3COCCOCCOCCOCCOCCO3)=C(C[C@@H](C)C[C@H](OC)[C@H](O)[C@@H](C)/C=C(\C)[C@@H]1OC(N)=O)C2=O` (stereo partly specified), the IC50 in the data set with SK-BR-3 came out at 710 nM; with SK-OV-3, 660 nM; with PC-3 it was 600 nM; in the data set with U-87 MG, 840 nM; in the data set with A549, 1090 nM; in data set [1], 4.07 µM. Further, the selectivity ratio amounted to 5.73 in data set [2], 6.78 in data set [4], 4.85 in data set [5] and 3.73 in [6]. The “Ratio IC50” value in data set [3] worked out at 6.17. In data set [7], the dissociation constant (Kd) turned out to be 1190 nM.

For the compound `CO[C@H]1/C=C\C=C(/C)C(=O)NC2=CC(=O)C(NNC3=NCCN3)=C(C[C@@H](C)C[C@H](OC)[C@H](O)[C@@H](C)/C=C(\C)[C@@H]1OC(N)=O)C2=O`, the IC50 in the data set with SK-BR-3 stood at 2090 nM; with SK-OV-3, 2470 nM; in the data set on PC-3, 3110 nM; in the data set with U-87 MG, 2090 nM; in the data set on A549, 2710 nM; in data set [1], 3.92 µM. Moreover, the selectivity ratio in data set [2] turned out to be 1.88; in data set [4] it was 1.26; in data set [5], 1.88; in [6], 1.45. For the same compound, in [3], the “Ratio IC50” value worked out at 1.59.

Regarding `C#CCNC1=C2C[C@@H](C)C[C@H](OC)[C@H](O)[C@@H](C)/C=C(\C)[C@H](OC(N)=O)[C@@H](OC)/C=C\C=C(/C)C(=O)NC(=CC1=O)C2=O`, the IC50 is 4440 nM with SK-BR-3; 4150 nM with SK-OV-3; 3610 nM with PC-3; 4010 nM with U-87 MG; 4520 nM in the data set with A549; 7.88 µM in data set [1]. In addition, the selectivity ratio in [2] was determined as 1.77; in [4], 2.18; in data set [5], 1.97; in data set [6], 1.74. For the same compound, in data set [3], the “Ratio IC50” value came to 1.9.

`CO[C@H]1/C=C\C=C(/C)C(=O)NC2=CC(=O)C(NCc3cccc(N4CCOC4=O)c3)=C(C[C@@H](C)C[C@H](OC)[C@H](O)[C@@H](C)/C=C(\C)[C@@H]1OC(N)=O)C2=O`: the IC50 turned out to be 3390 nM in the data set on SK-BR-3; 3030 nM in the data set on SK-OV-3; 3210 nM in the data set with PC-3; 3180 nM in the data set on U-87 MG; 3730 nM in the data set on A549; 11.3 µM in data set [1]. For the same compound, the selectivity ratio in [2] turned out to be 3.13; in data set [4], 3.51; in data set [5] it was 3.55; in [6], 3.02. In addition, the “Ratio IC50” value in data set [3] is 3.72.

On to `CO[C@@H](C=CC=C(C)C(N)=O)[C@@H](OC(N)=O)/C(C)=C/[C@H](C)[C@@H](O)[C@H](C[C@H](C)CC1=C(NCCCCCCO)C(=O)C=C(NCCCCCCO)C1=O)OC`, for which the IC50 in the data set on SK-OV-3 was 11900 nM; with PC-3, 11700 nM; in the data set on U-87 MG it was 11400 nM; in the data set on A549 it was 11000 nM. Moreover, the “Ratio IC50” value in data set [3] is reported as 1.47. In addition, the values for the selectivity ratio in data set [4], in data set [5] and in data set [6] were 1.48, 1.52 and 1.57, respectively. The Kd in data set [7] was determined as 183000 nM.

On to `CO[C@H]1/C=C\C=C(/C)C(=O)NC2=CC(=O)C(NCCN3CCCC3=O)=C(C[C@@H](C)C[C@H](OC)[C@H](O)[C@@H](C)/C=C(\C)[C@@H]1OC(N)=O)C2=O`, for which the IC50 with SK-BR-3 stood at 2050 nM; with SK-OV-3, 1540 nM; in the data set on PC-3, 1830 nM; in the data set on U-87 MG, 1770 nM; in the data set with A549, 1600 nM; in [1], 2.88 µM. Further, the selectivity ratio in data set [2] turned out to be 1.4; in [4], 1.57; in data set [5] it was 1.63; in [6], 1.8. Moreover, in data set [3], the “Ratio IC50” value is 1.87.

On to `Nc1ccn([C@@H]2O[C@H](CO)[C@@H](O)[C@@H]2O)c(=O)n1` [CYTARABINE], for which the half-maximal inhibitory concentration (IC50) with SK-BR-3 was determined as 870 nM; with SK-OV-3 it was 990 nM; in the data set on PC-3 it was 810 nM; with U-87 MG it was 850 nM; with A549 it was 830 nM; in data set [1], 5.94 µM. In addition, the selectivity ratio came to 6.83 in [2], 7.33 in [4], 6.99 in data set [5] and 7.16 in [6]. In addition, the “Ratio IC50” value in data set [3] worked out at 6.

For the compound `CO[C@@H](/C=C/C=C(/C)C(N)=O)[C@@H](OC(N)=O)/C(C)=C/[C@H](C)[C@@H](O)[C@H](C[C@H](C)CC1=C(NCCCCO)C(=O)C=C(NCCCCO)C1=O)OC`, the IC50 amounted to 4210 nM in the data set with SK-BR-3; 4270 nM in the data set on SK-OV-3; 4530 nM with PC-3; 4070 nM in the data set on U-87 MG; 4110 nM in the data set on A549; 6.36 µM in [1]. Moreover, the selectivity ratio is 1.51 in data set [2], 1.4 in data set [4], 1.56 in data set [5] and 1.55 in data set [6]. Besides, the “Ratio IC50” value in data set [3] worked out at 1.49.

For `CO[C@@H](C=CC=C(C)C(N)=O)[C@@H](OC(N)=O)/C(C)=C/[C@H](C)[C@@H](O)[C@H](C[C@H](C)CC1=C(NCCOCCO)C(=O)C=C(NCCOCCO)C1=O)OC`, the IC50 amounted to 12000 nM with SK-BR-3; 12400 nM in the data set on SK-OV-3; 13000 nM with PC-3; 12600 nM in the data set on U-87 MG; 11400 nM in the data set on A549; 31.3 µM in data set [1]. Also, the selectivity ratio in data set [2] was 2.62; in data set [4] it was 2.41; in [5], 2.49; in data set [6], 2.73. Also, the “Ratio IC50” value in data set [3] was 2.53.

On to `CO[C@H]1/C=C\C=C(/C)C(=O)NC2=CC(=O)C(NC3CCN(Cc4ccccc4)CC3)=C(C[C@@H](C)C[C@H](OC)[C@H](O)[C@@H](C)/C=C(\C)[C@@H]1OC(N)=O)C2=O`, for which the IC50 amounted to 1770 nM in the data set on SK-BR-3; 1850 nM in the data set with SK-OV-3; 1010 nM in the data set with PC-3; 1100 nM in the data set on U-87 MG; 1680 nM with A549; 4.88 µM in data set [1]. Also, the selectivity ratio is 2.76 in data set [2], 4.83 in data set [4], 4.14 in [5] and 2.9 in data set [6]. In data set [3], the “Ratio IC50” value is on record as 2.64.

Source of the values: ChEMBL document CHEMBL4765380, “Synthesis, structure and anticancer activity of new geldanamycin amine analogs containing C(17)- or C(20)- flexible and rigid arms as well as closed or open ansa-bridges” (Eur J Med Chem, 2020).
